Assay results published in ChEMBL document CHEMBL4024706 (Eur J Med Chem, 2017).
pEC50, pIC50, pKi: −log10 of the molar value. The source made the active and inactive calls. The calls are words filed in the database; no cut-off is given here.

What was measured:
Pfeiffer [1] = test: Cell cycle arrest in human Pfeiffer cells assessed as increase in accumulation at G0/G1 phase at 10 uM after 48 hrs by propidium iodide/RNase staining based flow cytometric method; type: functional
NB-4 = test: Growth inhibition of human NB4 cells; type: functional; details: Homo sapiens, NB-4
SKM-1 = test: Growth inhibition of human SKM1 cells; type: functional; details: Homo sapiens, SKM-1
[2] = target: Tyrosine-protein kinase BTK (Homo sapiens, UniProt Q06187, C481S); test: Irreversible inhibition of recombinant full length 3'-FLAG-tagged BTK C481S mutant (unknown origin) expressed in HEK293T cells assessed as reduction in Y223 phosphorylation measured after 4 hrs by Western blot method; type: cell-based
Tyrosine-protein kinase BTK (Homo sapiens, UniProt Q06187, C481S), sequence (Q06187 2-659 C481S limits assumed): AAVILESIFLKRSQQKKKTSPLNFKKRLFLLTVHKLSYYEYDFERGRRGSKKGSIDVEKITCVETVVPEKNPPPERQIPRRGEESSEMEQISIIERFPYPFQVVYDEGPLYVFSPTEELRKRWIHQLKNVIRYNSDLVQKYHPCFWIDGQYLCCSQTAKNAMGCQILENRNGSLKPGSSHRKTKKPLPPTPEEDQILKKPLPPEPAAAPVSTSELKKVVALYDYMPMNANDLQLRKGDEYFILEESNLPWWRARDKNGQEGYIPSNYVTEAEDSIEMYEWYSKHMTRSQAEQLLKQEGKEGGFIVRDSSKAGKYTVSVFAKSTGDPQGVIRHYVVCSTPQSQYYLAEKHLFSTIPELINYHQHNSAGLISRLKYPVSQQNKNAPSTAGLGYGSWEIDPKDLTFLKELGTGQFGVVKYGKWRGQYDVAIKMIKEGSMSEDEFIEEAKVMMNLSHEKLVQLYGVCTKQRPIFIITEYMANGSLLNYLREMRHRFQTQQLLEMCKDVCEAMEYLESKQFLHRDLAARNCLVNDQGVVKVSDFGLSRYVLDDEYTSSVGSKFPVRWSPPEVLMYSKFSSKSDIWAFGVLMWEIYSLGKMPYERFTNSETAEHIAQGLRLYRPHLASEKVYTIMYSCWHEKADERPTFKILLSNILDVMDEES

OCI-AML-3 = test: Growth inhibition of human OCI-AML3 cells; type: functional; details: Homo sapiens, OCI-AML-3
SU-DHL-2 = test: Growth inhibition of human SU-DHL-2 cells; type: functional; details: Homo sapiens, SU-DHL-2
[3] = target: T1, Tyrosine-protein kinase BTK (Homo sapiens, UniProt Q06187); test: Inhibition of full length recombinant human N-terminal His tagged […] expressed in baculovirus infected Sf9 insect cells using poly (Glu,Tyr)4:1 as substrate pretreated for 60 mins followed by substrate addition after 1 hr by ADP-Glo luminescence assay
T1 sequence (Q06187 whole entry): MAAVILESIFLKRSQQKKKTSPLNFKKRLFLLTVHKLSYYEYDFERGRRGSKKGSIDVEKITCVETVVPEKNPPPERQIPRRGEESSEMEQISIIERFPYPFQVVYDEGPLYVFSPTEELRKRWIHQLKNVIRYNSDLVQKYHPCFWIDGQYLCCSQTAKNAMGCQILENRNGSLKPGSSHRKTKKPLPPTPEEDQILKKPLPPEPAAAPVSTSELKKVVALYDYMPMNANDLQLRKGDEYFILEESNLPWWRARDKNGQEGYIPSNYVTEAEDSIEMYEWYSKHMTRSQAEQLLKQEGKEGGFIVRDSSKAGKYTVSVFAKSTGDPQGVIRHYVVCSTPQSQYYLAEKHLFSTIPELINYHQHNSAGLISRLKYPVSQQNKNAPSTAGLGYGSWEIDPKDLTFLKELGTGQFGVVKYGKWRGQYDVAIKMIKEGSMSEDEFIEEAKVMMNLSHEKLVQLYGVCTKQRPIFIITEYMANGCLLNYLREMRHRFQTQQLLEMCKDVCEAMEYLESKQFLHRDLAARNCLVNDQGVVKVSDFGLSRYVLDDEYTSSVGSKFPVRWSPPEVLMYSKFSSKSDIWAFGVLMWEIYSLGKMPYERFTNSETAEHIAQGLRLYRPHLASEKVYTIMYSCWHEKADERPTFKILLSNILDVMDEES

Ramos = test: Growth inhibition of human Ramos cells; type: functional; details: Homo sapiens, Ramos
U2932 [4] = test: Growth inhibition of human U2932 cells; type: functional; details: Homo sapiens, U2932
U-937 = test: Growth inhibition of human U937 cells; type: functional; details: Homo sapiens, U-937
[5] = target: T1, Tyrosine-protein kinase BTK; test: Irreversible inhibition of recombinant full length wild-type 3'-FLAG-tagged BTK (unknown origin) expressed in HEK293T cells assessed as reduction in Y223 phosphorylation measured after 4 hrs by Western blot method; type: cell-based
MV4-11 = test: Growth inhibition of human MV411 cells; type: functional; details: Homo sapiens, MV4-11
[6] = Growth inhibition of human M07e cells; type: functional; details: Homo sapiens, M-07e
U2932 [7] = test: Cell cycle arrest in human U2932 cells assessed as increase in accumulation at G0/G1 phase at 10 uM after 48 hrs by propidium iodide/RNase staining based flow cytometric method; type: functional
Pfeiffer [8] = test: Growth inhibition of human Pfeiffer cells; type: functional; details: Homo sapiens, Pfeiffer
[9] = AUC (0 to t) in Sprague-Dawley rat at 10 mg/kg, po by LC-MS/MS method; type: ADME, organism-based; details: in vivo
[10] = MRT (0 to t) in Sprague-Dawley rat at 1 mg/kg, iv by LC-MS/MS method; type: ADME, organism-based; details: in vivo
[11] = MRT (0 to t) in Sprague-Dawley rat at 10 mg/kg, po by LC-MS/MS method; type: ADME, organism-based; details: in vivo
[12] = target: T1, Tyrosine-protein kinase BTK
[13] = Oral bioavailability in Sprague-Dawley rat at 10 mg/kg by LC-MS/MS method; type: ADME, organism-based; details: in vivo
[14] = target: T1, Tyrosine-protein kinase BTK; test: Reversible inhibition of full length recombinant human N-terminal His tagged […] expressed in baculovirus infected Sf9 insect cells using poly (Glu,Tyr)4:1 as substrate pretreated for 2 to 60 mins followed by substrate addition after 1 hr by ADP-Glo luminescence assay
[15] = Tmax in Sprague-Dawley rat at 10 mg/kg, po by LC-MS/MS method; type: ADME, organism-based; details: in vivo
[16] = target: Epidermal growth factor receptor (Homo sapiens, UniProt P00533); test: Inhibition of recombinant human N-terminal GST-tagged wild-type EGFR (695 to end residues) expressed in baculovirus infected Sf9 insect cells using poly (Glu,Tyr)4:1 as substrate pretreated for 60 mins followed by substrate addition after 1 hr by ADP-Glo luminescence assay
Epidermal growth factor receptor, sequence (P00533 whole entry): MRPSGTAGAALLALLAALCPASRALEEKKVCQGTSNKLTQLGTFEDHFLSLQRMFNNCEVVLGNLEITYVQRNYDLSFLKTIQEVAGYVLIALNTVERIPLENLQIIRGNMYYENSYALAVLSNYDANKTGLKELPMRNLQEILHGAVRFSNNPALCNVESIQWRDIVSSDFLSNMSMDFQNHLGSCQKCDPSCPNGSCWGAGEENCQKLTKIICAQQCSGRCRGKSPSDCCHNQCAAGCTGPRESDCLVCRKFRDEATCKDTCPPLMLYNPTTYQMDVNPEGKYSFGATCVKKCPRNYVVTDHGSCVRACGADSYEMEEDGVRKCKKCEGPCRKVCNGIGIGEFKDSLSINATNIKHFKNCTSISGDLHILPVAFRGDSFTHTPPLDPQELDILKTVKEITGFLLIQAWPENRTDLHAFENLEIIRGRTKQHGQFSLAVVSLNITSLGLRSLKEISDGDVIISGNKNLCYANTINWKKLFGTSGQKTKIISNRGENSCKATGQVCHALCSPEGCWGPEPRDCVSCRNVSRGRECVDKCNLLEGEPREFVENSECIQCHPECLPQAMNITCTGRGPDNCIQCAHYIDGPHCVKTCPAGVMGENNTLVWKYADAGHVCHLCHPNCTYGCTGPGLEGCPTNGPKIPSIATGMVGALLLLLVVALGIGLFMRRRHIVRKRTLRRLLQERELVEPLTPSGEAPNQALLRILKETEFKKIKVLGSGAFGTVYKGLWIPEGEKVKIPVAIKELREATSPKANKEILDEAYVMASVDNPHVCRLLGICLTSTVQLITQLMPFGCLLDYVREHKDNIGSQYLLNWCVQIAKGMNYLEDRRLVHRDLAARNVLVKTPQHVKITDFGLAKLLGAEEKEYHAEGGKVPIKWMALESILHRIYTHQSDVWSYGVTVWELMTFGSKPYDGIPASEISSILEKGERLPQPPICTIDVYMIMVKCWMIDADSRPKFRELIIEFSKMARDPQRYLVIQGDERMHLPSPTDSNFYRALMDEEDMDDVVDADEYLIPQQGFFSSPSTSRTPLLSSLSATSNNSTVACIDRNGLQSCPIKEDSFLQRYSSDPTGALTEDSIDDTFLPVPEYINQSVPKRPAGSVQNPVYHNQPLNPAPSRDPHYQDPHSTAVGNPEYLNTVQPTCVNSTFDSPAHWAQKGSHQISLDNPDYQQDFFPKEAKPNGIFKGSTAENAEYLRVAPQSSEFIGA

[17] = Cmax in Sprague-Dawley rat at 10 mg/kg, po by LC-MS/MS method; type: ADME, organism-based; set-up: dose 10 mg/kg, route oral; details: in vivo
[18] = Tmax in Sprague-Dawley rat at 1 mg/kg, iv by LC-MS/MS method; type: ADME, organism-based; details: in vivo
[19] = Cmax in Sprague-Dawley rat at 1 mg/kg, iv by LC-MS/MS method; type: ADME, organism-based; set-up: dose 1 mg/kg, route intravenous; details: in vivo
[20] = Elimination half-life in Sprague-Dawley rat at 10 mg/kg, po by LC-MS/MS method; type: ADME, organism-based; details: in vivo, read-out: beta t1/2 (converted)
[21] = AUC (0 to t) in Sprague-Dawley rat at 1 mg/kg, iv by LC-MS/MS method; type: ADME, organism-based; details: in vivo
PBMC = test: Cytotoxicity against PBMC (unknwon origin); type: cell-based
[22] = AUC (0 to infinity) in Sprague-Dawley rat at 1 mg/kg, iv by LC-MS/MS method; type: ADME, organism-based; set-up: dose 1 mg/kg, route intravenous, time infinity; details: in vivo
[23] = AUC (0 to infinity) in Sprague-Dawley rat at 10 mg/kg, po by LC-MS/MS method; type: ADME, organism-based; set-up: dose 10 mg/kg, route oral, time infinity; details: in vivo
[24] = Elimination half-life in Sprague-Dawley rat at 1 mg/kg, iv by LC-MS/MS method; type: ADME, organism-based; details: in vivo, read-out: beta t1/2 (converted)
[25] = target: T2, Tyrosine-protein kinase JAK3 (Homo sapiens, UniProt P52333); test: Inhibition of recombinant human N-terminal GST-tagged JAK3 (781 to end residues) expressed in baculovirus infected Sf9 insect cells using poly (Glu,Tyr)4:1 as substrate pretreated for 60 mins followed by substrate addition after 1 hr by ADP-Glo luminescence assay
T2 sequence (P52333 whole entry): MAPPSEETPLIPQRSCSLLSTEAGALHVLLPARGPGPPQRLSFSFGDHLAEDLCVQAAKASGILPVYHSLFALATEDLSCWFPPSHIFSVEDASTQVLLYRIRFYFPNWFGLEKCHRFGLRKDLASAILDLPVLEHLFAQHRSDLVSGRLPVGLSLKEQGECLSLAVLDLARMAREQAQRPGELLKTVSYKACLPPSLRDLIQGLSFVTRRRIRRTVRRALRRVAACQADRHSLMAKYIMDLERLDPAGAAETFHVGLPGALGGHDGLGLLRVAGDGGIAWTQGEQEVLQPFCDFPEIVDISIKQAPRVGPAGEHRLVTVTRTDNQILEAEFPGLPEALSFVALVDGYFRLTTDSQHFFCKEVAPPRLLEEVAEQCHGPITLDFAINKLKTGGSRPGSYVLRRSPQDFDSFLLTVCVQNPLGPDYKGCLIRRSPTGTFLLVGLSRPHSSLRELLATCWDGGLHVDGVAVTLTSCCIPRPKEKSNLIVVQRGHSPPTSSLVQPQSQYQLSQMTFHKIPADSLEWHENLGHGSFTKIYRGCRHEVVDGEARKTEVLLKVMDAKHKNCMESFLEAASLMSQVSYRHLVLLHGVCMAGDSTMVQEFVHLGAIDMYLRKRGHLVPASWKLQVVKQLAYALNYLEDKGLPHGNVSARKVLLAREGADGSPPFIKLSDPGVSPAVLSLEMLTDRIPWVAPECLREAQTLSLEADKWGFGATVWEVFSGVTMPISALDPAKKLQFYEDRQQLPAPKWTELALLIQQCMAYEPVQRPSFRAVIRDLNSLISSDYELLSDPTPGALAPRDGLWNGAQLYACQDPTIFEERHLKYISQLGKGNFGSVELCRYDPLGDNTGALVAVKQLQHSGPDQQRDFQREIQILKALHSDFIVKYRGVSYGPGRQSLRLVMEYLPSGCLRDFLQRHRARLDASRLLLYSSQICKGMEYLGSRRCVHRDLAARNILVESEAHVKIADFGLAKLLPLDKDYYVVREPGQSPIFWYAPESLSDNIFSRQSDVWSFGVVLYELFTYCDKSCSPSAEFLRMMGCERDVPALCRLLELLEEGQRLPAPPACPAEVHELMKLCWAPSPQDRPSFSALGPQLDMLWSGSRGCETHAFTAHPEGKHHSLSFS

**Q.** Which results are given for `CCC(=O)Nc1cc(Nc2cc(-c3cccc(NC(=O)c4ccc(C(C)(C)C)cc4)c3C)cn(C)c2=O)ccc1C(=O)N1CCOCC1`?
**A.** Activity (Pfeiffer [1]): inactive; GI50 (NB-4): > 10000 nM; GI50 (SKM-1): > 10000 nM; pEC50 [2]: < 7.00; GI50 (OCI-AML-3): 9500 nM; GI50 (SU-DHL-2): > 10000 nM; pIC50 [3]: 6.79; GI50 (Ramos): 4600 nM; GI50 (U2932 [4]): > 10000 nM; GI50 (U-937): > 10000 nM; pEC50 [5]: < 7.00; GI50 (MV4-11): 4800 nM; GI50 [6]: > 10000 nM; Activity (U2932 [7]): inactive; GI50 (Pfeiffer [8]): > 10000 nM

**Q.** Which AUC(0-t) [9] does the source give for `C=CC(=O)Nc1cc(Nc2cc(-c3cccc(NC(=O)c4ccc(N(C)C)cc4)c3C)cn(C)c2=O)ccc1C(=O)N1CCOCC1` here?
**A.** 151 ng·h/mL

**Q.** What about the MRT last [10] of the same compound?
**A.** 9.6 min

**Q.** What about the MRT last [11] of the same compound?
**A.** 203 min

**Q.** What about the Kinact [12] of the same compound?
**A.** 0.33 min⁻¹

**Q.** And the GI50 (NB-4)?
**A.** 1900 nM

**Q.** What about the bioavailability [13] of the same compound?
**A.** 4.76%

**Q.** And the GI50 (SKM-1)?
**A.** 1000 nM

**Q.** What about the pKi [14] of the same compound?
**A.** 6.95

**Q.** And the Tmax [15]?
**A.** 4.98 min

**Q.** And the GI50 (OCI-AML-3)?
**A.** 2600 nM

**Q.** And the pIC50 [16]?
**A.** 5.23

**Q.** What about the GI50 (SU-DHL-2) of the same compound?
**A.** 2600 nM

**Q.** And the Cmax [17]?
**A.** 144 ng/mL

**Q.** And the pIC50 [3]?
**A.** 8.24

**Q.** What about the Tmax [18] of the same compound?
**A.** 1.02 min

**Q.** What about the Cmax [19] of the same compound?
**A.** 2440 ng/mL

**Q.** What about the GI50 (Ramos) of the same compound?
**A.** 2100 nM

**Q.** What about the GI50 (U2932 [4]) of the same compound?
**A.** 6900 nM

**Q.** What about the GI50 (U-937) of the same compound?
**A.** 2600 nM

**Q.** What about the half-life [20] of the same compound?
**A.** 472 min

**Q.** What about the AUC(0-t) [21] of the same compound?
**A.** 317 ng·h/mL

**Q.** And the Activity (PBMC)?
**A.** Non-Toxic

**Q.** What about the AUC(0-inf) [22] of the same compound?
**A.** 317 ng·h/mL

**Q.** What about the AUC(0-inf) [23] of the same compound?
**A.** 291 ng·h/mL

**Q.** What about the GI50 (MV4-11) of the same compound?
**A.** 1900 nM

**Q.** What about the GI50 [6] of the same compound?
**A.** 3200 nM

**Q.** And the half-life [24]?
**A.** 14.4 min

**Q.** What about the pIC50 [25] of the same compound?
**A.** 5.70

**Q.** What about the GI50 (Pfeiffer [8]) of the same compound?
**A.** 9000 nM

**Q.** Which results are given for `C=CC(=O)Nc1cc(Nc2cc(-c3cccc(NC(=O)c4cc5c(s4)CCCC5)c3C)cn(C)c2=O)ccc1C(=O)N1CCOCC1`?
**A.** AUC(0-t) [9]: 1790 ng·h/mL; MRT last [10]: 26.5 min; MRT last [11]: 141 min; Kinact [12]: 0.05 min⁻¹; GI50 (NB-4): 2400 nM; bioavailability [13]: 11.5%; GI50 (SKM-1): 2800 nM; pKi [14]: 8.22; Tmax [15]: 90 min; GI50 (OCI-AML-3): 2300 nM; pIC50 [16]: 5.16; GI50 (SU-DHL-2): 1800 nM; Cmax [17]: 1120 ng/mL; pIC50 [3]: 7.78; Tmax [18]: 1.02 min; Cmax [19]: 7620 ng/mL; GI50 (Ramos): 1200 nM; GI50 (U2932 [4]): 2300 nM; GI50 (U-937): 1600 nM; half-life [20]: 232 min; AUC(0-t) [21]: 1560 ng·h/mL; Activity (PBMC): Non-Toxic; AUC(0-inf) [22]: 1560 ng·h/mL; AUC(0-inf) [23]: 1900 ng·h/mL; GI50 (MV4-11): 2200 nM; GI50 [6]: 2800 nM; half-life [24]: 36.5 min; pIC50 [25]: 5.99; GI50 (Pfeiffer [8]): 3500 nM
